Patent publication US20170304228A1, “NEW INDICATION OF CINACALCET HCL PHARMACEUTICAL COMPOSITION FOR TREATING CANCER” (LAUNX BIOMEDICAL CO., LTD., priority 2014, published 2017)
Where a name gives a salt, the structure may show the parent alone. Read-outs that look alike come from different tables or passages of the source.

Key:
Format in all cases: cell-based
[1] = tested on: colorectal cancer cells; test: Summary of cell viability, colorectal cancer cells; conditions: 72 hours, read-out: Inhibitory effect
Protocol: (§1) The cell numbers were counted and reseed as 2×10^6 in culture plate/flask. Then, the culture medium were added to a volume of 10 ml, and the cells were cultured for 2-3 days. Then, the cells were suspended for loading into 96-well plates. The number of cells was 3000 and the volume of the culture medium was 100 μl each well.
(§2) Removing the original culture medium from 96-well plate. Then add 100 μl of commercially drug at a concentration of 10 μM per well. After 72 hours, add the diluted WST-1 reagent to the well with 100 μl/well, and the diluted WST-1 reagent was acquired from the dilution of 9:1 medium and WST-1 stock reagent. Finally, the total volume of each well was 200 μl/well. Culture the 96-well plate at 37° C. for 30 to 90 minutes. Detecting and calculate the survival rate of each cancer cells with an ELISA reader at OD450 nm. The lower viability of cancer cells represents better inhibition effect via the Cinacalcet HCl drug. Otherwise, the higher viability of cancer cells represents worse inhibition effect via the Cinacalcet HCl drug.
(§3) Cinacalcet HCl is having different inhibitory effect on different tumor cell type even in the same cancer. […] (FIG. 1)

[2] = tested on: skin cancer cells; test: Summary of cell viability, skin cancer cells; conditions: 72 hours, read-out: Inhibitory effect
Protocol: as §1, §2, §3

[3] = tested on: gastric cancer cells; test: Summary of cell viability, gastric cancer cells; conditions: 72 hours, read-out: Inhibitory effect
Protocol: as §1, §2, §3

[4] = tested on: AGS; test: Cell viability analysis (WST-1), AGS; conditions: Homo sapiens, read-out: survival rate (viability) of cells
Protocol: as §1, §2
This inhibition test of Cinacalcet HCl on gastrointestinal tract-related cancer cells were using gastric cancer cell lines AGS and MKN-45 (Table 9), hepatic cancer cell lines HepG2 and Hep3B (Table 10), colorectal cancer cell lines HCT116-wt and LoVo (Table 11), pancreatic cancer cell line AsPC-1 and BxPC-3(Table 12), tongue cancer cell line SAS (Table 13). The inhibitory tests of Cinacalcet HCl were performed 4 times for each cell lines and then the average value of the inhibitory tests was calculated.

[5] = tested on: TOV-21G; test: Cell viability analysis (WST-1), TOV-21G; conditions: Homo sapiens, TOV21G, read-out: survival rate (viability) of cells
Protocol: as §1, §2
(§4) This inhibition test of Cinacalcet HCl on endocrine-related cancer cells were using prostate cancer cell lines PC-3 and LNCap (Table 6), breast cancer cell lines MCF7 and MDA-MB-231 (Table 7), and ovarian cancer cell lines NIH-OVCAR-3 and TOV-21G (Table 8). The inhibitory tests of Cinacalcet HCl were performed 4 times for each cell lines and then the average value of the inhibitory tests was calculated.

[6] = tested on: normal cells; test: Toxicity to normal cells
Protocol: as §2
(§5) This inhibition test of Cinacalcet HCl on normal cells were using normal kidney cell line HEK293 (Table 16), normal pulmonary epithelial cell lines […] BEAS-2B (Table 17). The inhibitory tests of Cinacalcet HCl were performed 4 times for each cell lines and then the average value of the inhibitory tests was calculated The results were shown in Tables 16 and Tables 17.

[7] = tested on: TSGH; test: Cell viability analysis (WST-1), TSGH; conditions: read-out: survival rate (viability) of cells
Protocol: as §1, §2
This inhibition test of Cinacalcet HCl on abdominal-related cancer cells were using bladder cancer cell line TSGH and T24 (Table 3), cervical cancer cell lines HeLa and C-33A (Table 4), renal cancer cell line 786-O (Table 5). The inhibitory tests of Cinacalcet HCl were performed 4 times for each cell lines and then the average value of the inhibitory tests was calculated.

[8] = tested on: MCF7; test: Cell viability analysis (WST-1), MCF7; conditions: Homo sapiens, read-out: survival rate (viability) of cells
Protocol: as §1, §2, §4

[9] = tested on: prostate cancer cells; test: Summary of cell viability, prostate cancer cells; conditions: 72 hours, read-out: Inhibitory effect
Protocol: as §1, §2, §3

[10] = tested on: lung cancer cells; test: Summary of cell viability, lung cancer cells; conditions: 72 hours, read-out: Inhibitory effect
Protocol: as §1, §2, §3

[11] = tested on: A375; test: Cell viability analysis (WST-1), A375; conditions: Homo sapiens, read-out: survival rate (viability) of cells
Protocol: as §1, §2
This inhibition test of Cinacalcet HCl on other cancer cells were using osteosarcoma cell line U2OS (Table 14), skin cancer cell lines A375 and BCC (Table 15). The inhibitory tests of Cinacalcet HCl were performed 4 times for each cell lines and then the average value of the inhibitory tests was calculated.

[12] = tested on: pancreatic cancer cells; test: Summary of cell viability, pancreatic cancer cells; conditions: 72 hours, read-out: Inhibitory effect
Protocol: as §1, §2, §3

[13] = Cell viability analysis (WST-1), normal pulmonary epithelial cell line BEAS-2B; conditions: human, BEAS-2B cells (normal pulmonary epithelial cell line)
Description: Subculture the different types of cancer cells. The cancer cells includes lung cancer, gastric cancer, hepatic cancer, colon cancer, skin cancer, cervical cancer, prostate cancer, bladder cancer, breast cancer, leukemia, pancreatic cancer, ovarian cancer, tongue cancer, osteosarcoma, and renal cancer. The normal cells used in the control group included kidney cell (HEK293) and human bronchial epithelial cell line BEAS-2B (as shown in Table 1).
as §1, §2, §5

[14] = tested on: NIH-OVCAR-3; test: Cell viability analysis (WST-1), NIH-OVCAR-3; conditions: Homo sapiens, read-out: survival rate (viability) of cells
Protocol: as §1, §2, §4

[15] = tested on: bladder cancer cells; test: Summary of cell viability, bladder cancer cells; conditions: 72 hours, read-out: Inhibitory effect
Protocol: as §1, §2, §3

Structure (SMILES): C[C@@H](NCCCc1cccc(C(F)(F)F)c1)c1cccc2ccccc12 [Cinacalcet HCl, Cinacalcet hydrochloride]
- viability at 10 µM [1]: 74.4%
- viability at 10 µM [2]: 80%
- viability at 10 µM [3]: 123%
- viability at 10 µM ([4]; 72 h, average of tests): 28.3%
- viability at 10 µM ([4]; 72 hours, test 0510-10 min): 26.6%
- viability at 10 µM ([4]; 72 hours, test 0512-10 min): 20%
- viability at 10 µM ([4]; 72 hours, test 0515-10 min): 52.3%
- viability at 10 µM ([4]; 72 hours, test 0517-10 min): 14.5%
- viability at 10 µM ([5]; 72 h, average of tests): 113%
- viability at 10 µM ([5]; 72 hours, test 7-3-30 min): 129%
- viability at 10 µM ([5]; 72 hours, test 7-4-30 min): 109%
- viability at 10 µM ([5]; 72 hours, test 7-7-30 min): 104%
- viability at 10 µM ([5]; 72 hours, test -4-30 min): 108%
- toxicity to normal cells [6]: no toxicity or had little toxicity
- viability at 10 µM ([7]; 72 h, average of tests): 59.8%
- viability at 10 µM ([7]; 72 hours, test 0510-10 min): 57.3%
- viability at 10 µM ([7]; 72 hours, test 0512-10 min): 73.2%
- viability at 10 µM ([7]; 72 hours, test 0515-10 min): 74.7%
- viability at 10 µM ([7]; 72 hours, test 0517-10 min): 33.9%
- viability at 10 µM ([8]; MCF7, 10 μM, 72 hours, test 0612-10 min): 87.7%
- viability at 10 µM ([8]; MCF7, 10 μM, 72 hours, test 0614-10 min): 75.6%
- viability at 10 µM ([8]; MCF7, 10 μM, 72 hours, test 0616-10 min): 82.2%
- viability at 10 µM ([8]; MCF7, 10 μM, 72 hours, test 0619-10 min): 77.2%
- viability at 10 µM ([8]; MCF7, 72 h, 10 μM, average of tests): 80.7%
- viability at 10 µM [9]: 81.7%
- viability at 10 µM [10]: 83.1%
- viability at 10 µM ([11]; A-375, 10 μM, 72 hours, test 0602-30 min): 117%
- viability at 10 µM ([11]; A-375, 10 μM, 72 hours, test 0605-10 min): 95.6%
- viability at 10 µM ([11]; A-375, 10 μM, 72 hours, test 0607-10 min): 94.4%
- viability at 10 µM ([11]; A-375, 10 μM, 72 hours, test 0609-10 min): 108%
- viability at 10 µM ([11]; A-375, 72 h, 10 μM, average of tests): 104%
- viability at 10 µM [12]: 82.4%
- viability at 72 h, 10 µM ([13]; average of tests, read-out: survival rate (viability) of cells): 76.1%
- viability at 72 h, 10 µM ([13]; summary, normal pulmonary epithelial cell line, read-out: Inhibitory effect): 76.1%
- viability at 72 h, 10 µM ([13]; test 0510-10 min, read-out: survival rate (viability) of cells): 70.5%
- viability at 72 h, 10 µM ([13]; test 0512-10 min, read-out: survival rate (viability) of cells): 72.9%
- viability at 72 h, 10 µM ([13]; test 0515-10 min, read-out: survival rate (viability) of cells): 72.2%
- viability at 72 h, 10 µM ([13]; test 0517-10 min, read-out: survival rate (viability) of cells): 89%
- viability at 10 µM ([14]; OVCAR-3, 10 μM, 72 hours, test 7-3-30 min): 90.7%
- viability at 10 µM ([14]; OVCAR-3, 10 μM, 72 hours, test 7-4-30 min): 111%
- viability at 10 µM ([14]; OVCAR-3, 10 μM, 72 hours, test 7-7-30 min): 100%
- viability at 10 µM ([14]; OVCAR-3, 10 μM, 72 hours, test -4-30 min): 111%
- viability at 10 µM ([14]; OVCAR-3, 72 h, 10 μM, average of tests): 103%
- viability at 10 µM [15]: 90.4%
